Results reported in patent publication US12171732B2, “Compositions and use of N-chlorotaurine for treatment and prevention of respiratory infections” (priority 2021, dated 2024).
Read-outs that look alike come from different tables or passages of the source.

Legend:
[1] = system: Influenza A/Singapore/Hongkong/2339/2000 (H1N1); format: cell-based, Influenza A virus
[2] = in vivo; cited from earlier work
[3] = system: SARS-CoV-2 BavPat1; test: Inactivation of SARS-CoV-2 by NCT, plaque titration; format: cell-based
Protocol: FIG. 1A presents inactivation of SARS-Cov-2 (BAvPat1) by NCT. Virus suspension (SARS-CoV-2 BavPat1) was incubated with 1.0% (55 mM) NCT, 0.1% (5.5 mM) NCT, 1.0% NCT with 5.0% peptone or PBS or 5.0% peptone for 5 min, 15 min, 30 min, or 60 min at 37° C., after which samples were diluted 1:1 in met/his solution for inactivation of NCT. Remaining infectious virus particles were determined using plaque titration. To control for inactivation of NCT by met/his, virus was added after dilution of 1.0% NCT with or without peptone in met/his. Mean values±SD of three to eight independent experiments in duplicates. The dotted line indicates the detection limit (0.84 log10). Data were statistically analyzed using a two-way ANOVA including a Dunnett's multiple comparison test to PBS controls. *p<0.05, **p<0.01, ***p<0.001, ****p<0.0001.
Inactivation of SARS-CoV-2 wild type isolates from early 2020 was assessed by incubating stock virus with NCT for indicated time periods at 37° C. and then determining the remaining infectious particles using plaque assay or immunostaining as well as determining virus inactivation via RT-qPCR or TCID50. […]
With plaque assay readout, a significant reduction in infectious particles was detected after 15 min of incubation, when incubating SARS-CoV-2 with NCT in a buffered aqueous solution (FIG. 1A). […]

[4] = system: SARS-CoV-2 hCoV-19/Australia/VIC01/2020; test: as above; format: cell-based; conditions: 1.0% NCT in the presence of Vero cells, 37° C. (FIG. 1B)
Protocol: FIG. 1B presents inactivation of SARS-Cov-2 (hCoV-19/Australia/VIC01/2020) by NCT. Virus suspension (SARS-CoV-2 h CoV-19/Australia/VIC01/2020) was incubated with NCT or PBS or isopropanol (positive control) for 5 min, 10 min, 20 min, and 60 min at 37° C. and then diluted 1:1 in met/his for inactivation of NCT, followed by plaque titration. Mean values±SD of three independent experiments. Detection limit 3.11 log10 (dotted line).
(§1) Inactivation of SARS-CoV-2 wild type isolates from early 2020 was assessed by incubating stock virus with NCT for indicated time periods at 37° C. and then determining the remaining infectious particles using plaque assay or immunostaining as well as determining virus inactivation via RT-qPCR or TCID50. Exact incubation times of virus with NCT were ensured by adding met/his at the end of the incubation period, which inactivates NCT.
With plaque assay readout, a significant reduction in infectious particles was detected after 15 min of incubation, when incubating SARS-CoV-2 with NCT in a buffered aqueous solution (FIG. 1A). The mild oxidizing activity of the test antiseptic may explain why it took as long as 15 min to reduce infectious particles. In the presence of Vero cells (FIG. 1B) or particularly 5.0% peptone (FIG. 1A), however, a significant reduction of infectious virus particles occurred already after 5 min of incubation with 1.0% NCT. […]

[5] = system: SARS-CoV-2, clinical isolate; test: Virus inactivation assay with immunostaining readout (Vero/TMPRSS2/ACE2 cells); format: cell-based; conditions: 1% NCT, 37° C.
Protocol: (§2) FIG. 1C presents inactivation of SARS-Cov-2 (SARS-CoV-2, clinical isolate) by NCT. Virus suspension (SARS-CoV-2, clinical isolate) was incubated with 1% NCT or PBS for 1 min, 5 min, 7 min, 10 min, 20 min, and 30 min at 37° C. After inactivation of NCT and serial dilution, aliquots were added to Vero/TMPRSS2/ACE2 cells for 1 h in 96-well plates. Cells were washed, incubated for further 9 h, and fixed for Immunostaining (c) or RT-qPCR (d). In immunostaining, infected cells were visible as red spots and counted using an ImmunoSpot S6 Ultra-V reader and CTL analyser BioSpot® 5.0 software. Mean values±SD of three independent experiments.
as §1

[6] = system: SARS-CoV-2, clinical isolate; test: Virus inactivation assay with RT-qPCR readout (SARS-CoV-2 E Gene); format: cell-based; conditions: 1% NCT, 37° C., RT-qPCR (FIG. 1D)
Protocol: as §2
FIG. 1D presents inactivation of SARS-Cov-2 by NCT. After cell lysis and RNA extraction, one-step RT-qPCR assay was performed using the iTaq™ RT-PCR (BIO-RAD) kit and previously published primers and probes specific for detection of the SARS-CoV-2 E Gene on a CFX96™ real-time system (BIO-RAD). Mean values±SD of genome copies of three independent experiments. Detection limit 2.10 log10 RNA copies/ml (dotted line).

[7] = system: inoculated cell culture; test: MTT testing of cytotoxicity of inactivated NCT; format: cell-based; conditions: 0.1% NCT plus 0.1% met/his (inactivated NCT); PBS control 100.3±5.6
Source text: The antiviral activity was concentration-dependent. […] This was valid for all tests and viruses in this study.

[8] = system: Influenza A/Panama/2007/1999 (H3N2); format: cell-based, Influenza A virus; conditions: 1.0% NCT, within 5 min, plaque assay (FIG. 2A)
[9] = system: Influenza A/California/Swine Origin Virus/2009 (H1N1pdm); format: cell-based; conditions: 1.0% NCT
[10] = system: RSV long strain; format: cell-based, respiratory syncytial virus
[11] = molecular target: SARS-CoV-2 3C-like proteinase (Severe acute respiratory syndrome coronavirus 2, UniProt P0DTD1); test: Structural changes of 3C-like proteinase by NCT, mass spectrometry; format: biochemical; conditions: 1% NCT, 30 min, 37° C.
Source text: FIG. 5 presents Chlorination of tyrosines and histidines and oxidation of methionines and cysteines of SARS-CoV-2 3C-like proteinase by NCT.
Seven methionines and four cysteines were oxidized.

[12] = system: SARS-CoV-2; format: in vivo, human
[13] = system: SARS-CoV-2; test: Prophylaxis of contact persons with 1% NCT nose/throat spray; format: in vivo, human
Protocol: NCT may also be applied as nose/throat spray/rinse solution for prevention/prophylaxis of worsening or contagiousity to other persons. Even in case of low or no symptoms, 1% NCT aqueous solution may be used as a nose spray (two-three puffs (about 0.1 ml/puff) per nostril during forced nasal inspiration) and/or throat spray (three-four puffs (about 0.1 ml/puff) in the back of the mouth to the throat). Alternatively, 1% NCT aqueous solution may be used as a nasal rinse (10 ml to 20 ml instilled for 30 seconds up to 1 minute) and/or throat gargling solution (10 ml to 20 ml for 30 seconds up to 1 minute). This may be repeated at least two times per day or after close contact with other persons.
Spouse, person. (Day 7 of spouse's infection) dose time and symptoms: 2:10 PM—No symptoms 8:25 PM—No symptoms. (Day 8 of spouse's infection) dose time and symptoms: 2:40 PM—No symptoms 11:30 PM—No symptoms. (Day 9 of spouse's infection) dose time and symptoms: 11:10 AM—No symptoms 7:15 P. No symptoms.

[14] = system: SARS-CoV-2; test: Treatment of hospitalized COVID-19 patients with NCT solution for inhalation; format: in vivo, human
Protocol: The effect of an inhalation solution of NCT-Na is tested in patients who suffer from COVID-19 (infection with SARS-CoV-2). The solution consists of 1% NCT sodium in distilled water.

[15] = cited from earlier work
[16] = after the end of an inhalation of 1.0% NCT, cited from earlier work

Question: With Cl.N [Ammonium chloride, ammonium chloride, reference compound] as the molecule, how does the antiviral effect ([1]; ammonium chloride alone, up to 10 min incubation time) read?
Answer: Its antiviral effect is “no antiviral effect”.

Question: With Cc1ccc(S(=O)(=O)[N-]Cl)cc1.[Na+] [chloramine T] as the molecule, how does the “effects after inhalative application” value [2] read?
Answer: Its value is “asthmatic and inflammatory symptoms”.

Question: For O=S(=O)(O)CCNCl [NCT, N-chlorotaurine], which “incubation time after which a significant reduction of infectious virus particles occurred” value ([3]; 1.0% NCT in the presence of 5.0% peptone, 37° C. (FIG. 1A)) is on record?
Answer: The value was 5 min.

Question: And the “incubation time after which a significant reduction in infectious particles was detected” value ([3]; NCT in buffered aqueous solution, 37° C., plaque assay (FIG. 1A))?
Answer: The value was 15 min.

Question: What about the “incubation time after which a significant reduction of infectious virus particles occurred” value [4] of the same molecule?
Answer: Its value is 5 min.

Question: What about the “reduction of infected cells” value ([5]; after 1 min (not significant, p=0.085)) of the same molecule?
Answer: Its value is 50%.

Question: What about the “reduction of infected cells” value ([5]; after 5 min) of the same molecule?
Answer: The value was 20-80%.

Question: And the “reduction of infected cells” value ([5]; after 7 min)?
Answer: Its value is 81-91%.

Question: What about the “reduction of infected cells” value ([5]; after 10 min) of the same molecule?
Answer: Its value is 81-97%.

Question: And the “reduction of infected cells” value ([5]; after 20 min)?
Answer: Its value is 96-99%.

Question: What about the “reduction of infected cells” value ([5]; after 30 min) of the same molecule?
Answer: The value was greater than 99%.

Question: And the “reduction of genome copies” value [6]?
Answer: The value was “highly significant reduction of genome copies”.

Question: And the MTT reduction [7]?
Answer: Its MTT reduction is 94.1±8.5.

Question: And the “log10 reduction of virus” value [8]?
Answer: Its value is 2 log10.

Question: And the “time to reduction to the detection limit” value [9]?
Answer: Its value is no more than 1 min.

Question: What about the “log10 reduction of virus” value ([9]; within 1 min, plaque assay (FIG. 2B)) of the same molecule?
Answer: Its value is 6 log10.

Question: What about the “effect of addition of ammonium chloride (NH4Cl) on activity against influenza viruses” value ([1]; 0.1% NCT plus 0.1% ammonium chloride versus 0.1% NCT (FIG. 2D)) of the same molecule?
Answer: The value was “significantly enhanced”.

Question: And the “time to reduction to the detection limit” value ([1]; 1.0% NCT)?
Answer: The value was no more than 1 min.

Question: What about the “log10 reduction of virus” value ([1]; 1.0% NCT, within 1 min, plaque assay (FIG. 2C)) of the same molecule?
Answer: The value was 6 log10.

Question: What about the “incubation time to significant titre reduction” value ([10]; 0.1% NCT, 37° C.) of the same molecule?
Answer: Its value is 15 min.

Question: And the “infectious RSV measurable” value ([10]; 1.0% NCT, after 15 minutes)?
Answer: Its value is “Almost no detectable amount of infectious RSV”.

Question: What about the “log10 decrease of infectious virus titre” value ([10]; 1.0% NCT, within 5 minutes, 37° C. (FIG. 3)) of the same molecule?
Answer: The value was 4 log10.

Question: What about the cysteines oxidized [11] of the same molecule?
Answer: Its cysteines oxidized is “four”.

Question: What about the histidines chlorinated [11] of the same molecule?
Answer: The histidines chlorinated was “two”.

Question: And the methionines oxidized [11]?
Answer: The methionines oxidized was “Seven”.

Question: What about the tyrosines chlorinated [11] of the same molecule?
Answer: The tyrosines chlorinated was 3.

Question: And the “PCR of nose and throat smear, positive after cycles” value ([12]; Example 1 patient, Day 0, two hours after start of 1% NCT nasal spray and gargling)?
Answer: The value was 30-32 cycles.

Question: What about the “PCR of throat/nostril swab, positive after cycles” value ([12]; Example 1 patient, Day 3, after 1% NCT therapy was stopped) of the same molecule?
Answer: Its value is 25 cycles.

Question: What about the complaints ([12]; Example 1 patient, Day 4 to Day 11, after 1% NCT therapy Day 0 to Day 2) of the same molecule?
Answer: The complaints was “no complaints”.

Question: And the “PCR of nose-throat smear, positive after cycles” value ([12]; Example 1 patient, Day 6)?
Answer: Its value is 27 cycles.

Question: And the “throat and nasal smear control PCR, weakly positive after cycles” value ([12]; Example 1 patient, Day 13 (max cycle number 45))?
Answer: The value was 36.5 cycles.

Question: And the “throat and nasal smear control PCR” value ([12]; Example 1 patient, Day 19)?
Answer: The value was “negative”.

Question: And the “swab PCR ct value” ([12]; Example 2 patient, Day 1 evening, two hours after dosing, 14 cycles before NCT treatment)?
Answer: The value was 20-22 cycles.

Question: What about the swab result ([12]; Example 2 patient, after 10 days quarantine) of the same molecule?
Answer: The swab result was “swab negative”.

Question: And the “swab PCR ct value” ([12]; Example 2 patient, evening of day 4, 1% NCT nose spray and gargling 3× daily)?
Answer: Its value is 31-34 cycles.

Question: What about the “swab PCR ct value” ([12]; Example 2 patient, morning of Day 6, 14 hours after the last dosing of NCT) of the same molecule?
Answer: Its value is 31-34 cycles.

Question: And the symptoms ([12]; Example 4 patient, Day 10, 1% NCT nasal and throat spray since Day 4)?
Answer: The symptoms was “No symptoms”.

Question: What about the “infection status of family members” value ([13]; Example 2: wife and three teenagers in the same home, 1% NCT nose and throat spray 3 times daily) of the same molecule?
Answer: The value was “remained negative”.

Question: What about the symptoms of spouse ([13]; Example 4: spouse, Day 7 to Day 9 of husband's infection) of the same molecule?
Answer: The symptoms of spouse was “No symptoms”.

Question: What about the “infection status of persons with close contact to COVID-19 positive persons” value ([13]; several cases, use of the 1% NCT nasal spray) of the same molecule?
Answer: The value was “remained negative”.

Question: And the “course of disease during treatment” value ([14]; another 20 hospitalized patients, same treatment)?
Answer: Its value is “no progression of the disease and lung failure was avoided”.

Question: What about the “outcome on leaving the hospital” value ([14]; eight hospitalized patients, 3 ml 1% NCT sodium inhaled 3 times a day for 1 week to 9 days via nebulizer) of the same molecule?
Answer: Its value is “symptom-free or largely symptom-free”.

Question: What about the systemic distribution ([15]; human, in vivo) of the same molecule?
Answer: Its systemic distribution is “not distributed systemically”.

Question: What about the adverse effects ([15]; inhaled NCT, humans, phase I, chlorine taste and occasional tickle in the throat) of the same molecule?
Answer: The adverse effects was “Only minor and transient adverse effects”.

Question: What about the “further time until active chlorine vanishes completely” value ([16]; after decrease to traces) of the same molecule?
Answer: Its value is 10 min.

Question: And the “time for concentration of active chlorine to decrease to traces” value [16]?
Answer: The value was no more than 1 min.
